# Test results from US10940139B2, “Compounds that interact with the Ras superfamily for the treatment of cancers, inflammatory diseases, rasopathies, and fibrotic disease” (Shy Therapeutics LLC, priority 2017, dated 2021).
# Target: KRas G12D/Q61H double mutant (Homo sapiens (Human), UniProt P01116, G12D/Q61H)
# Test: Ras GTP binding domain inhibition assay (labeled GTP)
# Details: 20 μM compound; KRas G12D/Q61H double mutant; read-out: % Inhibition at 20 μM of K-Ras mutant and wild-type protein, KRas G12D Q61H
# Procedure: Buffer-I: • 50 mM Tris, pH 7.5 • 150 mM NaCl (optional) • 1 mM MgCl2 • 1 mM DTT. • KRas G12D mutant protein was expressed as a His-tagged protein. Purified His-KRas G12D protein was diluted in buffer-I to a final concentration of 3-10 μg/ml. • 200 μl of the diluted His-KRas G12D protein was added to a nickel coated 96 well plate and incubated overnight at 4° C. • The next day, wells were washed 3× in 200 μl of Buffer-I. • Then 200 μl of Buffer-I were added to each well in the presence of 1% DMSO. • Tested compounds were added to the protein-coated wells at a concentration of 20 μM, and incubated for 3 hours at room temperature. While performing IC50 measurements a serial dilution of all tested concentrations was prepared.
# Then 22 μl of Cy3-GTP or Cy5-GTP was added to each well. The labeled GTP was incubated for 45 min. at room temperature. • Following GTP incubation, wells were washed 3× in Buffer-I, and 200 μl of Buffer-I were added to each well. • Following washes, the amount of bound labeled-GTP was measured with an Eppendorf AF2200 plate reader.
# By substituting KRas G12D mutant protein with KRas G12C mutant, KRas wild type, KRas Q61H mutant, KRas G12D/Q61H double mutant or KRas G12C/Q61H double mutant under the assay conditions described above, KRas G12C mutant KRas wild type, KRas Q61H mutant, KRas G12D/Q61H double mutant and KRas G12C/Q61H double mutant inhibition, respectively, were each determined.
# Sequence of KRas G12D/Q61H double mutant (P01116-2 other isoform, or with tags, fused parts or gaps G12D/Q61H): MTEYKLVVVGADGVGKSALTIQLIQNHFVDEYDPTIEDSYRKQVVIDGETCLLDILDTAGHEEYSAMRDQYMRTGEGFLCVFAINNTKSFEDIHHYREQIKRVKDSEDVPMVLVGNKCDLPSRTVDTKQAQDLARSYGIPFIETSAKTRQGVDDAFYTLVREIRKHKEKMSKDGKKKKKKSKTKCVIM
row,SMILES,inhibition at 20 µM
1,Cc1ccc(Sc2ccc(S(=O)(=O)NC3CCCC3)cc2)cc1C,1 to 25%
2,CCOc1ccccc1N1CC(c2nc3ccccc3n2CCC2CCCCC2)CC1=O (stereo not drawn),25 to 50%
3,CN(Cc1ccccc1N1CCOCC1)C(=O)c1ccc(OCc2ccccc2)cc1,1 to 25%
4,COc1cccc(CN(C)S(=O)(=O)N(C)Cc2ccc(F)cc2)c1,25 to 50%
5,Cc1cc(C)c(-c2csc(C3CC3)n2)cc1C,25 to 50%
6,Cc1ccc(C)c(-c2csc(C3CN(Cc4ccccc4)CCO3)n2)c1 (stereo not drawn),25 to 50%
7,COC(C)c1nc(CN(Cc2ccc(C#N)cc2)Cc2cccc(F)c2)cs1 (stereo not drawn),25 to 50%
8,Cc1cccc(-n2ccnc2SCCCc2nc(-c3cccs3)no2)c1,25 to 50%
9,CCCOc1ccc2ccccc2c1CN(C)C(=O)C1CCCN(c2ncccn2)C1 (stereo not drawn),25 to 50%
10,CCc1ccccc1OCC(=O)N1N=C(c2ccccc2)CC1(O)C(F)(F)F (stereo not drawn),25 to 50%
11,CN(Cc1ccc(S(=O)(=O)N(C)C)o1)c1ccccc1-c1ccccc1,1 to 25%
12,CC(C)(C)NS(=O)(=O)c1ccccc1CNC(=O)CCC1CCCCC1,25 to 50%
13,O=C(CCCOc1ccc(Cl)cc1Cl)N1N=CCC1(O)C(F)(F)F (stereo not drawn),25 to 50%
14,Cc1ccc(CC(C#N)c2c(C#N)c(N)nc(N3CCCCC3)c2C#N)cc1 (stereo not drawn),1 to 25%
15,O=C(c1ccc(CSc2nc3ccccc3[nH]2)cc1)N1N=CCC1(O)C(F)(F)F (stereo not drawn),25 to 50%
16,COc1ccc(N(CC(=O)N(c2ccccc2)C(C)C)S(=O)(=O)c2ccccc2C(F)(F)F)cc1,25 to 50%
17,COc1ccc(C(C)=O)cc1CC(C(=O)c1ccc(C2CCCCC2)cc1)N(C)C (stereo not drawn),25 to 50%
18,Cc1nc(Cc2nnc(SCc3ccc(-c4ccccc4C#N)cc3)o2)cs1,1 to 25%
19,CCC(C)c1ccc(S(=O)(=O)NC(c2ccccc2)c2ccccn2)cc1 (stereo not drawn),25 to 50%
20,O=c1c(Cc2cc(Cl)c3cccnc3c2O)c(O)oc2ccccc12,25 to 50%
21,CC(C)(C)OC(=O)N1CCCN1c1nc(-c2cccs2)nc2ccccc12,25 to 50%
22,CC(C)(COc1ncccc1C(F)(F)F)Nc1nccc(C(F)(F)F)n1,25 to 50%
23,OCCN(Cc1ccc(Cl)c(Cl)c1)c1ncc(Br)cn1,1 to 25%
24,COc1ccc(CCNc2nc(-c3cc(C)n(-c4ncn[nH]4)c3C)cs2)cc1OC,25 to 50%
25,O=c1[nH]c(CN(CCc2ccc(Cl)cc2)Cc2nc3ccsc3c(=O)[nH]2)nc2ccsc12,25 to 50%
26,Cc1ccc(OC(C)C(=O)Nc2ccccc2S(=O)(=O)NC(C)(C)C)c(Br)c1 (stereo not drawn),1 to 25%

row,SMILES,inhibition at 20 µM
1,O=C(COc1ccccc1C(=O)c1cnn(-c2ccccc2)c1)NCC1CCCCC1,25 to 50%
2,Cc1cc(C)c(C)c(S(=O)(=O)N2CCN(C(C)C(=O)NCc3ccc4c(c3)OCO4)CC2)c1C (stereo not drawn),1 to 25%
3,CC1CN(C(=O)CSc2nnc(Cc3cccc4ccccc34)n2C2CCCCC2)CC(C)O1 (stereo not drawn),25 to 50%
4,CC(C)c1ccc(-c2nc(C(=O)NC(C)c3ccccn3)cs2)cc1 (stereo not drawn),25 to 50%
5,COC(=O)c1c(NC(=O)Cc2cc(OC)c(OC)c(OC)c2)sc2c1CCCCC2,25 to 50%
6,COc1ccccc1CN(Cc1coc(-c2ccc(F)cc2)n1)Cc1cccs1,1 to 25%
7,O=C(NN(Cc1ccccc1)Cc1ccccc1)c1n[nH]c(=O)c2ccccc12,25 to 50%
8,CC1CC1COC(=O)c1sccc1S(=O)(=O)N1CCSCC1 (stereo not drawn),25 to 50%
9,FC(F)n1ccnc1CCNCc1csc(COc2ccccc2)n1,51 to 75%
10,Clc1ccccc1SCCCSc1nnc(N2CCCC2)s1,25 to 50%
11,CN(C)S(=O)(=O)c1ccc(CN2CCCCCC2/C=C/c2ccccc2)o1 (stereo not drawn),25 to 50%
12,CN(C)S(=O)(=O)c1cccc(CSCCOc2cccc(Cl)c2)c1,25 to 50%
13,CCC(C)Oc1cc(-c2nc(C3CCCN3C(=O)OC(C)(C)C)no2)ccn1 (stereo not drawn),25 to 50%
14,COCCCOC1(CSc2nnc(COc3cc(C)ccc3C)o2)CCCC1,25 to 50%
15,FC(F)(F)C1CCCN(Cc2ccccc2CN2CCCC(C(F)(F)F)C2)C1 (stereo not drawn),25 to 50%
16,CCSC1CCCCC1NCc1nc(-c2ccc(OC(F)F)c(OC)c2)no1 (stereo not drawn),25 to 50%
17,Cn1ccnc1C(NCCOc1ccc2cc(Br)ccc2c1)C1CC1 (stereo not drawn),1 to 25%
18,Cc1ccc(C)c(OCc2nnc(SCc3c(C#N)c(C)nn3-c3ccccc3)o2)c1,25 to 50%
19,CCOCCOc1ccc(Br)cc1CNCc1cccc(N2CC=CC2)c1,25 to 50%
20,O=C(c1ccoc1)N1CCC(Nc2cc(Cl)ccc2OCC2CCC2)CC1,25 to 50%
21,CCCN(CC1CC1)S(=O)(=O)Oc1ccc(N(C)S(=O)(=O)c2cccs2)cc1,25 to 50%
22,COc1ccc(-c2nc(CSc3nnc(CC(C)c4ccccc4)o3)cs2)cc1OC (stereo not drawn),25 to 50%
23,CC(C)n1cnnc1CNCc1ccc(OCc2ccccc2)cc1OCc1ccccc1,1 to 25%
24,OC(CNC(Cc1ccccc1)c1nc(-c2ccccc2)no1)COCc1ccccc1Cl (stereo not drawn),25 to 50%
25,COCCN(Cc1ccccc1)CC(O)COC(c1ccc(OC)cc1)c1ccc(OC)cc1 (stereo not drawn),1 to 25%

# Next, values leading:
row,inhibition at 20 µM,SMILES
1,25 to 50%,COC(=O)c1c(CN(C)Cc2nccn2CC(F)(F)F)nc2ccccc2c1-c1ccccc1
2,25 to 50%,CCc1nc2ccc(C(=O)Nc3ccccc3C(=O)N3CC(C)OC(C)C3)cc2nc1CC (stereo not drawn)
3,1 to 25%,CCc1nc2ccccc2c(C(=O)OCC(=O)c2cc(C)n(CCOC)c2C)c1C
4,25 to 50%,CCc1oc2ccccc2c1CN(C)C(=O)c1cccc(OCc2c(C)noc2C)c1
5,25 to 50%,C=CCn1c(C)cc(C(=O)CSc2nc3ccccc3c(=O)n2C(C)COC)c1C (stereo not drawn)
6,25 to 50%,CCN(CC)S(=O)(=O)c1ccc(C(C)NCc2ccc(Cl)s2)cc1 (stereo not drawn)
7,1 to 25%,CCCCN1CC(c2nc3ccccc3n2CCCCOc2c(C)cccc2C)CC1=O (stereo not drawn)
8,25 to 50%,Cc1ccc(OCCn2c(CN3CCCCC3)nc3ccccc32)cc1C
9,25 to 50%,CCc1ccc(C(=O)c2cc3ccccc3o2)s1
10,25 to 50%,CC[S+]([O-])c1ccccc1C(=O)OCc1ccc(-c2ccccc2C#N)cc1 (stereo not drawn)
11,1 to 25%,CCOC(=O)c1ccc2c(c1)n(Cc1occc1C(=O)OC)c(=O)n2CC
12,51 to 75%,C=CCn1c(C)cc(C(=O)COC(=O)c2ccccc2Oc2ccccc2)c1C
13,25 to 50%,COc1ccc(-c2csc3nc(C)nc(N(C)Cc4ccco4)c23)cc1OC
14,25 to 50%,C=CCc1cc(OCC)ccc1OCC(=O)NCc1ccc(OC)cc1
15,25 to 50%,CCN(CC(=O)Nc1ccccc1OC)Cc1coc(-c2ccc(C)cc2C)n1
16,1 to 25%,CCOc1ccc(Oc2ccc(C(F)(F)F)cc2NC(=O)CC(NC(C)=O)c2ccccc2)cc1 (stereo not drawn)
17,25 to 50%,CCOc1ccc(CN(C)CC(=O)Nc2ccc3c(c2)c2ccccc2n3CC)cc1OC
18,25 to 50%,COC(=O)c1ccc(Oc2ccc(S(=O)(=O)N3CCCCC3)cc2NCc2cc(C)on2)cc1
19,1 to 25%,CCCN(CC1CC1)C(=O)COC(=O)c1c(C)nc(-c2cccs2)nc1SC
20,25 to 50%,COC(=O)c1sccc1S(=O)(=O)NCCCCCc1nc(-c2ccc(C)cc2)no1

row,inhibition at 20 µM,SMILES
1,1 to 25%,CCc1cc(N2CC(Cc3cc(OC)cc(OC)c3)C2)nc(-c2ccncc2)n1
2,25 to 50%,CCOC(=O)c1c(-c2ccc(Br)cc2)csc1/N=C/N(C)C
3,25 to 50%,COc1ccccc1CN(Cc1cccs1)C(=O)c1ccc(COC(C)C)cc1
4,1 to 25%,COc1cc(C(=O)NCC(c2cccs2)N(C)C)ccc1OCc1ccccc1Cl (stereo not drawn)
5,25 to 50%,CCn1c(SCc2csc(-c3ccc(OC)c(OC)c3)n2)nc2ccccc21
6,1 to 25%,COc1ccc(S(=O)(=O)N2CCCCCC2)cc1C(=O)NCCc1ccccc1C
7,25 to 50%,CCOc1cc(CN(C(=O)CCc2nc(-c3ccsc3)no2)C2CC2)ccc1OC(F)(F)F
8,1 to 25%,Cc1nn(Cc2ccccc2Cl)c(C)c1CN(C)S(=O)(=O)c1cccs1
9,25 to 50%,COc1ccc(CCNC(=O)COC(=O)c2c(NC(=O)C(C)(C)C)sc(C)c2C)cc1
10,1 to 25%,COCCCCC(=O)N(c1cc(C)ccc1F)C(C)c1ccc(C)cc1 (stereo not drawn)
11,25 to 50%,COc1ccc(OCCCn2c(C(F)(F)F)c(Br)cnc2=O)cc1
12,25 to 50%,Cc1occc1-c1nnc(SCC2CCN(C(=O)OCc3ccccc3)CC2)o1
13,25 to 50%,COC(=O)C(C)CN(Cc1ccc(OCc2ccc([N+](=O)[O-])cc2)c(OC)c1)C1CC1 (stereo not drawn)
14,25 to 50%,CCOc1ccc(-c2nc(CSc3nc4ccccc4n3CCOC)cs2)cc1OC
15,1 to 25%,COc1cc(CN(C)C(=O)Cc2ccc(Br)cc2)ccc1OCc1ccccc1
16,1 to 25%,CCOC(COCCNC(=O)c1ccsc1NC(=O)c1ccc(C(C)C)cc1)OCC
17,1 to 25%,CCn1c(SCCCc2nc3ccccc3o2)nc2ccsc2c1=O
18,25 to 50%,CC(C)(C)c1noc(COc2ccc(C(=O)c3ccc(F)cc3)cc2)n1
19,25 to 50%,CCC(C)N(C(=O)CS(=O)(=O)c1nc(-c2ccccc2)cs1)C(C)CC (stereo not drawn)
